# According to US20200016062A1, “TERMINALIA FERDINANDIANA LEAF EXTRACT AND PRODUCTS CONTAINING EXTRACT OF TERMINALIA FERDINANDIANA LEAF” (RISING PHOENIX INDUSTRIES PTY LTD, priority 2016, published 2020):
# Test system: C. jeikeium
# Assay: modified disc diffusion assay, C. jeikeium
# Assay type: cell-based, Corynebacterium jeikeium
# Settings: 10 μL extract per disc; vancomycin 5 μg disc; aerobic, 37° C., 24 hours
# Protocol: Evaluation of antibacterial activity screening of the T. ferdinandiana fruit and leaf extracts was assessed using a modified disc diffusion assay.
# 100 μL of each individual bacteria (C. jeikeium, B. linens, P. acnes and S. epidermidis) was grown separately in 20 mL of the appropriate broth until an approximate count of 10^8 cells/mL was reached.
# A volume of 100 μL of each bacterial suspension was spread onto agar plates and the extracts tested for antibacterial activity using 5 mm sterilised filter paper discs.
# C. jeikeium cultures were spread onto nutrient agar plates supplemented with 300 μL Tween 80/L of agar.
# Discs were infused with 10 μL of the individual extracts, allowed to dry and placed onto inoculated plates. The plates were left to stand at 4° C. for 2 hours before incubation.
# Plates inoculated with B. linens, S. epidermidis or C. jeikeium cultures were incubated aerobically at 37° C. for 24 hours.
# The diameters of the inhibition zones were measured to the closest whole millimetre. Each assay was completed in at least triplicate. […]
# The ability of T. ferdinandiana leaf and fruit extracts to inhibit the growth of bacterial species under test associated with the production of body and foot odours were assessed. […]
structure (smiles),measurement,value
CN[C@H](CC(C)C)C(=O)N[C@H]1C(=O)N[C@@H](CC(N)=O)C(=O)N[C@H]2C(=O)N[C@H]3C(=O)N[C@H](C(=O)N[C@H](C(=O)O)c4cc(O)cc(O)c4-c4cc3ccc4O)[C@H](O)c3ccc(c(Cl)c3)Oc3cc2cc(c3O[C@@H]2O[C@H](CO)[C@@H](O)[C@H](O)[C@H]2O[C@H]2C[C@](C)(N)[C@H](O)[C@H](C)O2)Oc2ccc(cc2Cl)[C@H]1O [vancomycin],growth inhibitory activity against C. jeikeium (zones of inhibition),good inhibitor
